The values that follow come from patent publication US10562912B2 (C&C Research Laboratories, priority 2013, dated 2020).

Format in all cases: cell-based
In one experiment the target is T1, STAT3 (Homo sapiens, UniProt P40763).
T1 construct: plasmid pSTAT3-TA-luc), which contains a stably operating STAT3 promoter; endogenous in cells
The experiment is described as follows: STAT3 reporter gene assay (luciferase), LNCaP stable cell line (pSTAT3-TA-luc), IL-6 stimulation. The method in brief: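 LNCaP cells stably carrying pSTAT3-TA-luc, in RPMI1640 with 3% DCC-FBS, were treated with compound and then stimulated with 10 ng/mL IL-6 for 24–48 h at 37 °C. Luciferase activity was measured in lysates. A parallel plate measured viability by CellTiter-Glo, with stimulated 0.1% DMSO wells as the positive control.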

For the next experiment, the system named is DU-145. As to the kind of experiment: Cell growth inhibition assay, prostate cancer cell line DU-145. To be noted: Homo sapiens, DU-145 prostate cancer cell line. Summed up: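 Luminescent CellTiter-Glo readout of viable cells after 72–96 h compound exposure (37° C., 5% CO2). Seeding: 3,000 cells/well for DU-145 and HCT116, 5,000 cells/well for SW626. Controls were medium without cells and 0.1% DMSO vehicle.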

In a further experiment the test system is LNCaP. As to the kind of experiment: Cell growth inhibition assay, prostate cancer cell line LNCaP (medium with 10 ng/mL IL-6). The following applies: Homo sapiens, medium supplemented with 10 ng/mL of IL-6, 10,000 cells/well.
Another experiment concerns HEL92.1.7. The experiment is described as follows: Cell growth inhibition assay, blood cancer cell line HEL92.1.7. The following applies: Homo sapiens, HEL 92.1.7, HEL92.1.7 blood cancer cell line. As to the method:
The inhibitory effects of the compounds of the present invention against the growth of cancer cells were evaluated as shown below. The cancer cell lines including stomach cancer cell line (AGS), breast cancer cell lines (MDA-MB-231, MDA-MB-468, and BT-549), prostate cancer cell lines (LNCaP and DU-145), colon cancer cell line (HCT116), ovarian cancer cell line (SW626), liver cancer cell line (Hep3B), kidney cancer cell line (ACHN), lung cancer cell line (NCI-H23) and blood cancer cell lines (HEL92.1.7 and U266) were cultured under the protocol provided by each supplier. A medium supplemented with 10 ng/mL of IL-6 was used for LNCaP, a prostate cancer cell line, when treated with a drug. Each type of cells to be used in experiments were sub-cultured in a 96-well plate by counting the exact number of cells using Tali™ Image-based Cytometer (Life Technologies). In a 96-well plate, AGS, HCT116, and DU-145 were employed with 3,000 cells/well; NCI-H23, SW626, Hep3B, ACHN, BT-549, MDA-MB-231, HEL92.1.7, and U266 were employed with 5,000 cells/well; and LNCaP and MDA-MB-468 were employed with 10,000 cells/well. The cells were treated with the compounds listed in Examples which were diluted in various concentrations. Upon completion of the compounds treatment, AGS, HCT116, SW626, DU145, NCI-H23, Hep3B, ACHN, BT-549, LNCaP, HEL92.1.7, and U266 cells were cultured at 37° C. under 5% CO2 for from 72 to 96 hours, and MDA-MB-231 and MDA-MB-468 cells were cultured at 37° C. in air for from 72 to 96 hours. Subsequently, the cells were observed under microscope and drug precipitation and particular findings were investigated and recorded. And then, the 96-well plate was placed at room temperature for 30 minutes, added with 20 μL/well of CellTiter-Glo solution (Cat No. G7573, Promega) and shaken for 10 minutes, followed by being subjected to the measurement using PHERAstar™ microplate reader (BMG LABTECH) according to the supplier's general luminometer protocol. Wells where only culture liquid added without cell plating were used as a negative control, whereas wells where culture liquid containing 0.1% DMSO instead of the compounds listed in Examples were used as a positive control.

Bounds are passed on as bounds.

T1 sequence (P40763 whole entry): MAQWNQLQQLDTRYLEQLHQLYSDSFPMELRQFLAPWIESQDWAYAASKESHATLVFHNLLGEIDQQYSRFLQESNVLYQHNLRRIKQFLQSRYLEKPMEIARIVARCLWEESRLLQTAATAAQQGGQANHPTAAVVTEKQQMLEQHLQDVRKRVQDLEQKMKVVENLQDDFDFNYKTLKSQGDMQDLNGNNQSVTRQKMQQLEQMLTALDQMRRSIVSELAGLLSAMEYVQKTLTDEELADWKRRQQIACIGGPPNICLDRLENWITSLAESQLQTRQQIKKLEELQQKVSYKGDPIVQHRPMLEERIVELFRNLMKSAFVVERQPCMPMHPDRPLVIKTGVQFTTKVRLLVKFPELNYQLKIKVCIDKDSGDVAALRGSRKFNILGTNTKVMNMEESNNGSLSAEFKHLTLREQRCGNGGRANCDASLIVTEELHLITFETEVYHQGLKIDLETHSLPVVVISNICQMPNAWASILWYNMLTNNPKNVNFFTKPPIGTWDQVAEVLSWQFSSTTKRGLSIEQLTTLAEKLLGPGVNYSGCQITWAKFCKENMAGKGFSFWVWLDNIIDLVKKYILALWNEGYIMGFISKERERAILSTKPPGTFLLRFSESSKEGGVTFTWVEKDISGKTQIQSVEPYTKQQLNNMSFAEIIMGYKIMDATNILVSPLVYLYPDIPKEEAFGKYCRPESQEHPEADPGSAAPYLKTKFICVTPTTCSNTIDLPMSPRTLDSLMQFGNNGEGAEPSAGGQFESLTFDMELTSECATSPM

Turning to `CC(C)(c1ccccc1)c1cc(Cl)cc(NC(=O)c2cc3cc(NS(C)(=O)=O)ccc3s2)c1` [Example 64, N-(3-chloro-5-(2-phenylpropan-2-yl)phenyl)-5-(methylsulfonamido)benzo[b]thiophene-2-carboxamide], the IC50 (commonly the concentration at which inhibition is half-maximal) was found to be 0.065 µM on STAT3, 0.043 µM in the experiment with DU-145, 0.1 µM with LNCaP and 0.11 µM with HEL92.1.7.
In the same order, the values of `CC(C)Oc1cc(OC(F)(F)F)cc(C(C)(C)c2cc(Cl)cc(NC(=O)c3cc4c(N5CCOCC5)c(NS(C)(=O)=O)ccc4s3)c2)c1` [Example 66, N-(3-chloro-5-(2-(3-isopropoxy-5-(trifluoromethoxy)phenyl)propan-2-yl)phenyl)-5-(methylsulfonamido)-4-morpholinobenzo[b]thiophene-2-carboxamide] are more than 10 µM, more than 1.1 µM, more than 1.1 µM and more than 1.1 µM.
As to `COc1cc(F)cc(C(C)(C)c2cc(Cl)cc(NC(=O)c3cc4cc(NS(C)(=O)=O)ccc4s3)c2)c1` [Example 67, N-(3-chloro-5-(2-(3-fluoro-5-methoxyphenyl)propan-2-yl)phenyl)-5-(methylsulfonamido)benzo[b]thiophene-2-carboxamide], the IC50 turned out to be 0.067 µM at STAT3, 0.042 µM in the experiment with DU-145, 0.037 µM in the experiment with LNCaP and 0.11 µM in the experiment with HEL92.1.7.
For `CC(C)Oc1cc(OC(F)(F)F)cc(C(C)(C)c2cc(Cl)cc(NC(=O)c3nc4cc(NS(C)(=O)=O)ccc4s3)c2)c1` [Example 81, N-(3-chloro-5-(2-(3-isopropoxy-5-(trifluoromethoxy)phenyl)propan-2-yl)phenyl)-5-(methylsulfonamido)benzo[d]thiazole-2-carboxamide], in that order: 0.055 µM, 0.11 µM, 0.15 µM and 0.34 µM.
In the same order, the values of `CC(C)(c1cc(Cl)cc(NC(=O)c2cc3cc(NS(C)(=O)=O)ccc3s2)c1)c1cc(OCC(F)F)cc(OC(F)(F)F)c1` [Example 83, N-(3-chloro-5-(2-(3-(2,2-difluoroethoxy)-5-(trifluoromethoxy)phenyl)propan-2-yl)phenyl)-5-(methylsulfonamido)benzo[b]thiophene-2-carboxamide] are 0.023 µM, 0.012 µM, 0.025 µM and 0.1 µM.
With `CC(C)Oc1cc(OC(F)(F)F)cc(C(C)(C)c2cc(Cl)cc(NC(=O)c3cc4cc(NS(C)(=O)=O)c(F)cc4s3)c2)c1` [Example 84, N-(3-chloro-5-(2-(3-isopropoxy-5-(trifluoromethoxy)phenyl)propan-2-yl)phenyl)-6-fluoro-5-(methylsulfonamido)benzo[b]thiophene-2-carboxamide], the IC50 turned out to be 0.004 µM at STAT3, 0.002 µM in the experiment on DU-145, 0.008 µM in the experiment on LNCaP and 0.014 µM with HEL92.1.7.
For `CC(C)(c1cc(F)cc(NC(=O)c2cc3cc(NS(C)(=O)=O)ccc3s2)c1)c1cc(OC(F)(F)F)cc(OC(F)(F)C(F)F)c1` [Example 85, N-(3-fluoro-5-(2-(3-(1,1,2,2-tetrafluoroethoxy)-5-(trifluoromethoxy)phenyl)propan-2-yl)phenyl)-5-(methylsulfonamido)benzo[b]thiophene-2-carboxamide], in that order: 0.016 µM, 0.007 µM, 0.025 µM and 0.076 µM.
On to `CC(C)(c1cc(F)cc(NC(=O)c2cc3cc(NS(C)(=O)=O)ncc3s2)c1)c1cc(OC(F)(F)F)cc(OC(F)(F)C(F)F)c1` [Example 86, N-(3-fluoro-5-(2-(3-(1,1,2,2-tetrafluoroethoxy)-5-(trifluoromethoxy)phenyl)propan-2-yl)phenyl)-5-(methylsulfonamido)thieno[2,3-c]pyridine-2-carboxamide], for which the IC50 against STAT3 was found to be 0.072 µM; in the experiment on DU-145, 0.047 µM; with LNCaP it was 0.075 µM; in the experiment with HEL92.1.7, 0.23 µM.
Regarding `CC(C)(c1cc(Br)cc(NC(=O)c2cc3cc(NS(C)(=O)=O)ccc3s2)c1)c1cc(OC(F)(F)F)cc(OC(F)(F)C(F)F)c1` [Example 87, N-(3-bromo-5-(2-(3-(1,1,2,2-tetrafluoroethoxy)-5-(trifluoromethoxy)phenyl)propan-2-yl)phenyl)-5-(methylsulfonamido)benzo[b]thiophene-2-carboxamide], the IC50 on STAT3 is 0.016 µM; with DU-145, 0.009 µM; with LNCaP it was 0.028 µM; in the experiment with HEL92.1.7, 0.091 µM.
Consider `CC(C)(c1cc(Cl)cc(NC(=O)c2cc3cc(NS(C)(=O)=O)ccc3s2)c1)c1cc(OCC(F)(F)F)cc(OC(F)(F)F)c1` [Example 88, N-(3-chloro-5-(2-(3-(2,2,2-trifluoroethoxy)-5-(trifluoromethoxy)phenyl)propan-2-yl)phenyl)-5-(methylsulfonamido)benzo[b]thiophene-2-carboxamide], for which the IC50 against STAT3 was determined as 0.015 µM; in the experiment on DU-145 it was 0.008 µM; with LNCaP, 0.024 µM; with HEL92.1.7, 0.087 µM.
In the same order, the values of `CC(C)(c1cc(Br)cc(NC(=O)c2cc3cc(NS(C)(=O)=O)ncc3s2)c1)c1cc(OC(F)(F)F)cc(OC(F)(F)C(F)F)c1` [Example 89, N-(3-bromo-5-(2-(3-(1,1,2,2-tetrafluoroethoxy)-5-(trifluoromethoxy)phenyl)propan-2-yl)phenyl)-5-(methylsulfonamido)thieno[2,3-c]pyridine-2-carboxamide] are 0.047 µM, 0.048 µM, 0.07 µM and 0.22 µM.
For `CC(C)(c1cc(Cl)cc(NC(=O)c2cc3cc(NS(C)(=O)=O)ccc3s2)c1)c1cc(OCCN2CCOCC2)cc(OC(F)(F)F)c1` [Example 90, N-(3-chloro-5-(2-(3-(2-morpholinoethoxy)-5-(trifluoromethoxy)phenyl)propan-2-yl)phenyl)-5-(methylsulfonamido)benzo[b]thiophene-2-carboxamide], in that order: 0.043 µM, 0.048 µM, 0.22 µM and 0.23 µM.
For `CC(C)Oc1cc(Br)cc(C(C)(C)c2cc(Cl)cc(NC(=O)c3cc4cc(NS(C)(=O)=O)ccc4s3)c2)c1` [Example 91, N-(3-(2-(3-bromo-5-isopropoxyphenyl)propan-2-yl)-5-chlorophenyl)-5-(methylsulfonamido)benzo[b]thiophene-2-carboxamide], the IC50 is 0.032 µM against STAT3, 0.012 µM with DU-145, 0.056 µM in the experiment on LNCaP and 0.078 µM in the experiment with HEL92.1.7.
Turning to `CC(C)Oc1cc(Cl)cc(C(C)(C)c2cc(Cl)cc(NC(=O)c3cc4cc(NS(C)(=O)=O)ccc4s3)c2)c1` [Example 92, N-(3-chloro-5-(2-(3-chloro-5-isopropoxyphenyl)propan-2-yl)phenyl)-5-(methylsulfonamido)benzo[b]thiophene-2-carboxamide], the IC50 against STAT3 amounted to 0.067 µM; in the experiment with DU-145 it was 0.017 µM; in the experiment on LNCaP it was 0.071 µM; in the experiment on HEL92.1.7, 0.1 µM.
In the same order, the values of `CC(C)Oc1cc(OC(F)(F)F)cc(C(C)(C)c2cc(Cl)cc(NC(=O)c3cc4c(F)c(NS(C)(=O)=O)ccc4s3)c2)c1` [Example 93, N-(3-chloro-5-(2-(3-isopropoxy-5-(trifluoromethoxy)phenyl)propan-2-yl)phenyl)-4-fluoro-5-(methylsulfonamido)benzo[b]thiophene-2-carboxamide] are 0.091 µM, 0.021 µM, 0.055 µM and 0.12 µM.
